Experiments:
[1] = tested on: MV4-11; experiment: Cytotoxicity against human MV4-11 cells assessed as cell growth reduction measured for 48 hrs by MTT assay; assay type: functional
[2] = tested on: MCF7; experiment: Antiproliferative activity against human MCF7 cells assessed as reduction in cell viability incubated for 72 hrs by MTT assay; assay type: functional, cell-based; details: MCF7, 72 h
[3] = tested on: HCT-116; experiment: Antiproliferative activity against human HCT-116 cells assessed as reduction in cell viability incubated for 72 hrs by CCK-8 assay; assay type: functional, cell-based; details: HCT-116, 72 h
[4] = tested on: K562; experiment: Antiproliferative activity against human K562 cells assessed as reduction in cell viability incubated for 72 hrs by CCK-8 assay; assay type: functional, cell-based; details: K562, 72 h
[5] = biological target: T1, Cyclin-dependent kinase 9 (Homo sapiens, UniProt P50750); experiment: Inhibition of CDK9 (unknown origin)
[6] = biological target: Casein kinase I isoform alpha (Homo sapiens, UniProt P48729); experiment: Binding affinity to CK1alpha (unknown origin) assessed as dissociation constant
[7] = biological target: T1, Cyclin-dependent kinase 9; experiment: Binding affinity to CDK9 (unknown origin) assessed as dissociation constant
[8] = tested on: A498; experiment: Antiproliferative activity against human A498 cells assessed as reduction in cell viability incubated for 72 hrs by MTT assay; assay type: functional, cell-based; details: A498, 72 h
[9] = Antiproliferative activity against human A-293 cells assessed as reduction in cell viability measured for 48 hrs by MTT assay; assay type: toxicity, cell-based; details: A-293 (AD293) cells
[10] = tested on: L02; experiment: Antiproliferative activity against human L02 cells assessed as reduction in cell viability incubated for 72 hrs by MTT assay; assay type: functional, cell-based; details: L02, 72 h
[11] = Cytotoxicity against human HEK293T cells assessed as reduction in cell viability incubated for 72 hrs by MTT assay; assay type: toxicity, cell-based, HEK-293T
[12] = biological target: Histone deacetylase 1 (Homo sapiens, UniProt Q13547); experiment: Inhibition of HDAC1 (unknown origin) by fluorescence based assay
[13] = biological target: T1, Cyclin-dependent kinase 9; experiment: Inhibition of CDK9 (unknown origin) at 100 nM relative to control
[14] = Inhibition of CDK2/CYCA (unknown origin); design: species or system Homo sapiens
[15] = biological target: T2, CDK9/cyclin T1 (Homo sapiens, UniProt P50750); experiment: Binding affinity to CDK9/cyclin T1 (unknown origin) assessed as inhibition constant; assay type: protein-complex assay
[16] = biological target: Receptor-type tyrosine-protein kinase FLT3 (Homo sapiens, UniProt P36888, ITD); experiment: Binding affinity FLT3-ITD mutant (unknown origin) assessed as inhibition constant
[17] = biological target: CDK7/Cyclin H/MNAT1 (Homo sapiens, UniProt P50613); experiment: Inhibition of CDK7/CycH/MAT1 (unknown origin); assay type: protein-complex assay
[18] = biological target: Cyclin-dependent kinase 2/cyclin E1 (Homo sapiens, UniProt P24941); experiment: Inhibition of CDK2/cyclin E1 (unknown origin); assay type: protein-complex assay
[19] = tested on: OCI-AML-3; experiment: Antiproliferative activity against human OCI-AML-3 assessed as reduction in cell viability incubated for 48 hrs by CellTiter-Glo cell vaibility assay; assay type: functional, cell-based; details: OCI-AML-3, 48 h
[20] = biological target: Cyclin-dependent kinase 4 (Homo sapiens, UniProt P11802); experiment: Inhibition of CDK4 (unknown origin)
[21] = biological target: T1, Cyclin-dependent kinase 9
[22] = biological target: T3, Protein cereblon/Cyclin-dependent kinase 9 (Homo sapiens) (UniProt P50750+Q96SW2); experiment: PROTAC activity at CRBN/CDK9 in human MV4-11 cells assessed as maximal degradation of CDK9 at 10 uM measured for 6 hrs by Western blot analysis; assay type: cell-based
[23] = biological target: T3, Protein cereblon/Cyclin-dependent kinase 9 (Homo sapiens); experiment: PROTAC activity at CRBN/CDK9 in human MV4-11 cells assessed as maximal degradation of CDK9 at 20 uM measured for 6 hrs by Western blot analysis; assay type: cell-based
[24] = Downregulation of RNAP2 phosphorylation at serine 2 residue in human MV4-11 cells; assay type: functional, cell-based
[25] = tested on: MV4-11; experiment: Antiproliferative activity against human MV4-11 cells assessed as reduction in cell growth incubated for 48 hrs by MTT assay; assay type: functional, cell-based; details: MV4-11, 48 h
[26] = tested on: MOLM-13; experiment: cells; details: Homo sapiens, MOLM-13, 96 h
[27] = biological target: T2, CDK9/cyclin T1; experiment: Inhibition of CDK9/cyclin T1 (unknown origin); assay type: protein-complex assay
[28] = tested on: MOLM-13; experiment: Antiproliferative activity against human MOLM-13 cells assessed as reduction in cell viability incubated for 72 hrs by MTT assay; assay type: functional, cell-based; details: MOLM-13, 72 h
[29] = biological target: Cyclin-dependent kinase 5 (Homo sapiens, UniProt Q00535)
[30] = biological target: Cyclin-dependent kinase 7 (Homo sapiens, UniProt P50613); experiment: Inhibition of CDK7 (unknown origin)
[31] = tested on: MV4-11; experiment: Cytotoxicity against human MV4-11 cells assessed as reduction in cell viability measured for 72 hrs by cellTiter-Glo assay; assay type: functional, cell-based; details: MV4-11, 72 h

T1 sequence (P50750 whole entry, canonical isoform): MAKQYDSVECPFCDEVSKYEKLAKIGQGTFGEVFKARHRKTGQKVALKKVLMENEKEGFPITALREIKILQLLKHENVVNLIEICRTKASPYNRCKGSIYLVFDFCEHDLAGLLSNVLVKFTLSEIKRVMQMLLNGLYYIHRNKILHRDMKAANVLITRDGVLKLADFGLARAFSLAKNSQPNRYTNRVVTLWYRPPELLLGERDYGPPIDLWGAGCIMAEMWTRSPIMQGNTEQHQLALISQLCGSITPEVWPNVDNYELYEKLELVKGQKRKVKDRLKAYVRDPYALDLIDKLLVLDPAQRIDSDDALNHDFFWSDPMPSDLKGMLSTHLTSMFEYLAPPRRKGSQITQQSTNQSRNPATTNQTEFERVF
T3 sequence (P50750 whole entry, looked up): as the sequence (P50750 whole entry, canonical isoform) above
T3 sequence (Q96SW2 whole entry, looked up): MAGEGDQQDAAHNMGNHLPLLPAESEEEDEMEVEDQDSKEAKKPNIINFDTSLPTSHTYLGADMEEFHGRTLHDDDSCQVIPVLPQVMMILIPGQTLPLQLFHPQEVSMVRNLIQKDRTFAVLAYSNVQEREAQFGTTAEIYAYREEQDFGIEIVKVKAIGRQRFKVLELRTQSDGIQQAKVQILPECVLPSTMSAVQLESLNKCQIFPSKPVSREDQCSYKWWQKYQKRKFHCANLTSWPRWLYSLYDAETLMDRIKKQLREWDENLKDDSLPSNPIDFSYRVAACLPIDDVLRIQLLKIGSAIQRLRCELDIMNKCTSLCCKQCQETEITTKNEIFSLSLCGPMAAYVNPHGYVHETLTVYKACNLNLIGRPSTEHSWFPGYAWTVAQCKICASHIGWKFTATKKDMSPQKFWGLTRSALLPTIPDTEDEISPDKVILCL
T2 sequence (O60563 whole entry): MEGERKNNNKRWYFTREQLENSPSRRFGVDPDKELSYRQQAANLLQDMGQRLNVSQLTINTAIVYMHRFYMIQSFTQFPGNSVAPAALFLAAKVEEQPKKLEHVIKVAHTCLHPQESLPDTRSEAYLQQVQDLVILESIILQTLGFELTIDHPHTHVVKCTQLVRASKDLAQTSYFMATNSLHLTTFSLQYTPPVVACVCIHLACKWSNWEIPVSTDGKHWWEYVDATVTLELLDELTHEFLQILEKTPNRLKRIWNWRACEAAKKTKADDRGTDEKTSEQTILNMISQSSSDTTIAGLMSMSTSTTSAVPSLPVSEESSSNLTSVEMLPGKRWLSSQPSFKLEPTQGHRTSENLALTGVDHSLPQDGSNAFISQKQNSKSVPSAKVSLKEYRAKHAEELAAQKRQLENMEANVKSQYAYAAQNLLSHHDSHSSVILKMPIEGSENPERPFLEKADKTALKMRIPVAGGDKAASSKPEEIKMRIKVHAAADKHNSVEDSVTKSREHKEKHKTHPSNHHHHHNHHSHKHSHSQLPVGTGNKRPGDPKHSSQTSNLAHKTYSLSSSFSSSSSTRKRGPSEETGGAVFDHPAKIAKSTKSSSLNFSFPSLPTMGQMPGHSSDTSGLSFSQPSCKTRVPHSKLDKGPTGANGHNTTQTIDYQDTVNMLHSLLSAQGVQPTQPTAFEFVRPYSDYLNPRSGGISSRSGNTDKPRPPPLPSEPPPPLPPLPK
T2 sequence (P50750 whole entry): as the sequence (P50750 whole entry, canonical isoform) above
Chain of Casein kinase I isoform alpha (P48729 whole entry, canonical isoform): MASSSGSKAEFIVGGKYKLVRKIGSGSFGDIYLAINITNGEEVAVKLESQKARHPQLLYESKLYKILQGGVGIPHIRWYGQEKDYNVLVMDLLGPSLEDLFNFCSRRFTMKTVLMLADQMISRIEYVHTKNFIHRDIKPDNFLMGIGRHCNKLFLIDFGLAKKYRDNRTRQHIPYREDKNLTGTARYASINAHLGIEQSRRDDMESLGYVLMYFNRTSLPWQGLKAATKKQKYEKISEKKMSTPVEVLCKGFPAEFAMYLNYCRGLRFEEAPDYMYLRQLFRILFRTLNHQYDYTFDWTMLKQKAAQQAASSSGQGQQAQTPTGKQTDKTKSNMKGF
Chain of Cyclin-dependent kinase 4 (P11802 whole entry): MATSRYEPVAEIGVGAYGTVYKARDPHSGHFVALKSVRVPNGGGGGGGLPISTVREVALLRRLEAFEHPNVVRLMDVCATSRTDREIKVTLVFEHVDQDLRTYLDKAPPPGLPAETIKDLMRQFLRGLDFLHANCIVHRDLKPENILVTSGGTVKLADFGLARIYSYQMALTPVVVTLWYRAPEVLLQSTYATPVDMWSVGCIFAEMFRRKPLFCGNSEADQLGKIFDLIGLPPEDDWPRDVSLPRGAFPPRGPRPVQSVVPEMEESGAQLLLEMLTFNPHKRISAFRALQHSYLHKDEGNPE
Chain of Histone deacetylase 1 (Q13547 whole entry): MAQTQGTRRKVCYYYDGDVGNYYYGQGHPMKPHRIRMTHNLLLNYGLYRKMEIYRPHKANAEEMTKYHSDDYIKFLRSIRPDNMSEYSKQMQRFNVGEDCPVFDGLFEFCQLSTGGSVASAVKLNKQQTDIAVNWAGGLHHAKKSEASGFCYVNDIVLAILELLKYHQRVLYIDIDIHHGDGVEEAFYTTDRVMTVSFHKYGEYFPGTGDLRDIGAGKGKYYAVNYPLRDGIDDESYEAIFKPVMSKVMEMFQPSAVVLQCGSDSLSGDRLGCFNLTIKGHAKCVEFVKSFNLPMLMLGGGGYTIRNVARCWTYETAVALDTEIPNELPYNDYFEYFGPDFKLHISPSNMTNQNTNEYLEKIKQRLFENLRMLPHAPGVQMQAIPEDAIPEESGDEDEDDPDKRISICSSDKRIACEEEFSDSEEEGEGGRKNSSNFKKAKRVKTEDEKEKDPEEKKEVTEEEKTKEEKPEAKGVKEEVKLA
Chain of CDK7/Cyclin H/MNAT1 (P51946 whole entry): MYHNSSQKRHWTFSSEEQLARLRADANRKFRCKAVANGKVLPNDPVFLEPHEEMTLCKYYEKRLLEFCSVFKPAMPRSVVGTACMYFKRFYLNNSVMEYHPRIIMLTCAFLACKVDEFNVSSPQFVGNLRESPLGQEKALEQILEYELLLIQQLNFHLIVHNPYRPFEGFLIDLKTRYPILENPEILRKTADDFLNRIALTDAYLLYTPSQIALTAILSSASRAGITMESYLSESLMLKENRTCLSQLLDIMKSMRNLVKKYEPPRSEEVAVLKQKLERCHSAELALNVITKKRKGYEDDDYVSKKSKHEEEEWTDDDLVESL
Chain of CDK7/Cyclin H/MNAT1 (P50613 whole entry): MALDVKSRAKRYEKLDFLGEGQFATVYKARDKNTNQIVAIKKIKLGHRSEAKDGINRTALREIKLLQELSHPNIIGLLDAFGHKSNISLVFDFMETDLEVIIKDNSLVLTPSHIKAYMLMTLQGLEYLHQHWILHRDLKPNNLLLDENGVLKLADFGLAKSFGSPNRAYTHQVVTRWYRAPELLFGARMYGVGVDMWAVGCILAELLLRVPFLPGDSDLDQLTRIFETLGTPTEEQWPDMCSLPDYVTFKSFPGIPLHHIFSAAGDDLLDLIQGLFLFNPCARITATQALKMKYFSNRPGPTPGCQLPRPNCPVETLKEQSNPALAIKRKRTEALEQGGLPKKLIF
Chain of CDK7/Cyclin H/MNAT1 (P51948 whole entry, further chain): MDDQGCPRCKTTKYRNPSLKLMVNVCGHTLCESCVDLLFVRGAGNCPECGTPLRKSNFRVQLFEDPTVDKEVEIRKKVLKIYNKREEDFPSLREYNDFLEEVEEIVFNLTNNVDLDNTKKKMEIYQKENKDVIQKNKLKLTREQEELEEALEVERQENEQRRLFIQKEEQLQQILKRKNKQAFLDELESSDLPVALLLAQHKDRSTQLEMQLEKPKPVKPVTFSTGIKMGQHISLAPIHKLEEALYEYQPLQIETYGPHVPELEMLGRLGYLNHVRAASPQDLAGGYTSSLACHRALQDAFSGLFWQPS
Chain of Cyclin-dependent kinase 5 (Q00535 whole entry): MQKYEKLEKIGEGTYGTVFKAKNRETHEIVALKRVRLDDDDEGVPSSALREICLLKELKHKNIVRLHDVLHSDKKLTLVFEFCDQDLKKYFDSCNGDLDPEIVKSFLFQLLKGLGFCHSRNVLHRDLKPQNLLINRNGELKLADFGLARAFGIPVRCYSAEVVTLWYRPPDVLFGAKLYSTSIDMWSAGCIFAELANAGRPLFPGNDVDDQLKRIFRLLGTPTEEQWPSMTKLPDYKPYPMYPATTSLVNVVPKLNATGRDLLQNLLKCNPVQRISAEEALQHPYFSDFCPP
Chain of Cyclin-dependent kinase 7 (P50613 whole entry): as the sequence (P50613 whole entry) above

Which GR50 [1] does the source give for CCC(CC)c1cc(N[C@H]2CC[C@H](N)C2)n2nccc2n1 [ISTISOCICLIB] here?
The GR50 was 0.288 µM.

Which IC50 [2] does the source give for COc1ccc(Nc2c(-c3ccoc3)nc3cnccn23)cc1 here?
Its IC50 is 11.6 µM.

And the IC50 [3]?
Its IC50 is 11.6 µM.

And the IC50 [4]?
Its IC50 is 11.6 µM.

With COc1ccccc1-c1ccnc(Nc2ccc3c(c2)CC(=O)C(C(C)=O)C3C)n1 (stereo unspecified) as the compound, how does the IC50 [5] read?
The IC50 was 184 nM.

What does the source list for Cn1ncc(-c2nc(NC3CCC(N)CC3)ncc2F)c1CC1CC1 (stereo unspecified)?
Kd [6]: 9.8 nM; Kd [7]: 5.4 nM

What does the source list for N[C@H]1CC[C@H](Nc2cc(-c3cccc(NCc4cccc(F)c4)n3)c(Cl)cn2)CC1?
IC50 [5]: < 0.4 nM; IC50 [8]: 57 nM; IC50 at 48 h [9]: 76 nM

Which results are given for COc1ccc(C(=O)Nc2cc(-c3ccnc(N4CCC(O)CC4)c3)ccn2)cc1?
IC50 [10]: > 800 nM; IC50 at 72 h [11]: > 800 nM

With Nc1ccccc1NC(=O)c1ccc(NC(=O)c2n[nH]cc2NC(=O)c2c(Cl)cccc2Cl)cc1 as the compound, how does the IC50 [12] read?
Its IC50 is 98 nM.

What about the inhibition [13] of the same compound?
The inhibition was 98.3%.

What does the source list for c1ccc(CNc2c(-c3ccncc3)nc3cnccn23)cc1?
IC50 [2]: 7 µM; IC50 [3]: 7 µM; IC50 [4]: 7 µM

With COc1ccccc1-c1cc(Nc2cccc(CS(N)(=O)=O)c2)ncn1 as the compound, how does the IC50 [14] read?
Its IC50 is 2440 nM.

Which results are given for Cn1ncc(-c2nc(NC3CCC(N)CC3)ncc2Cl)c1CC1CC1 (stereo unspecified)?
Kd [6]: 5.3 nM; Kd [7]: 4 nM

With Cc1cnc(NC2CCC(N)CC2)nc1-c1cnc2ccc(-c3ccccc3)cn12 (stereo unspecified) as the compound, how does the Ki [15] read?
Its Ki is 8 nM.

And the Ki [16]?
Its Ki is 13 nM.

For O=c1cc(-c2cccc(O)c2)oc2c1ccc1occc12, which IC50 [17] is on record?
The IC50 was 93 nM.

What about the IC50 [18] of the same compound?
The IC50 was over 20 µM.

For COc1cc(O)c2c(=O)cc(-c3ccc(N4CCN(C)CC4)cc3)oc2c1N1CCNCC1, which IC50 [14] is on record?
The IC50 was 1180 nM.

Which IC5 [5] does the source give for CCN1C(=O)COc2c(CN3CCOCC3)cc(Nc3nccc(-c4cccnc4)n3)cc21 here?
Its IC5 is 6.7 nM.

Which IC50 [19] does the source give for Cc1ccc([N+](=O)[O-])cc1S(=O)(=O)N(C)/N=C/c1cnc2ccc(Br)cn12 here?
Its IC50 is 220 nM.

Which IC50 [20] does the source give for CC(C)c1c2cc(-c3ccnc(Nc4ccc5c(N6CCN(C)CC6)ncnc5c4)n3)ccc2nn1C here?
The IC50 was 2.2 nM.

What about the IC50 [21] of the same compound?
Its IC50 is 1.9 nM.

Which IC5 [20] does the source give for CN(C)C(=O)c1cc2cnc(Nc3ccc(S(N)(=O)=O)cc3)nc2n1C1CCCC1 here?
Its IC5 is 12 nM.

With O=C1CCC(N2C(=O)c3cccc(OCCCCCOc4ccc(CC(=O)Nc5cc(C6CCC6)[nH]n5)cc4)c3C2=O)C(=O)N1 (stereo unspecified) as the compound, how does the Emax [22] read?
Its Emax is 56%.

What about the Emax [23] of the same compound?
Its Emax is 65%.

With CC(=O)N[C@H]1CCC[C@@H](C(=O)Nc2cc(-c3cnn4c3CC(C)(C)C4)c(Cl)cn2)C1 as the compound, how does the IC50 [24] read?
Its IC50 is 13 nM.

And the IC50 [25]?
Its IC50 is 13.7 nM.

For COc1cc(F)ccc1-c1ncnc(Nc2cccc(C[S@](C)(=N)=O)c2)n1 [ATUVECICLIB], which IC50 [26] is on record?
Its IC50 is 310 nM.

With N[C@H]1CCN(c2c3c(nc4ccc(-c5ccnc(NC(=O)C6CC6)n5)cc24)CCCC3)C1 as the compound, how does the IC50 [5] read?
The IC50 was 2.23 nM.

Which results are given for CN(C)C/C=C\C(=O)Nc1ccc(C(=O)N[C@H]2CC[C@H](Nc3cc(-c4cccc(NCc5cccc(F)c5)n4)c(Cl)cn3)CC2)cc1?
IC50 [27]: 196 nM; IC50 [8]: < 700 nM; IC50 at 48 h [9]: 3230 nM

With COc1cc(F)ccc1-c1cc(Nc2cc(C[S@](C)(=N)=O)ccn2)ncc1F as the compound, how does the IC50 [28] read?
Its IC50 is 29 nM.

For COC[C@H](C)N[C@H]1CC[C@H](Nc2cc(-c3cccc(NCC4(C#N)CCOCC4)n3)c(Cl)cn2)CC1, which IC50 [5] is on record?
Its IC50 is under 0.514 nM.

Which IC50 [5] does the source give for COc1ccccc1-c1cccc(Nc2cccc(N3CCCNCC3)c2)n1 here?
Its IC50 is 16 nM.

What about the IC50 [29] of the same compound?
Its IC50 is 574 nM.

For COCCN[C@H]1CC[C@H](Nc2cc(-c3csc(NCC4(C#N)CCOCC4)n3)c(Cl)cn2)CC1, which IC50 [30] is on record?
Its IC50 is 172 nM.

And the IC50 [5]?
Its IC50 is 2 nM.

What about the IC50 [31] of the same compound?
The IC50 was 12 nM.

Reference: ChEMBL document CHEMBL5543128, “Recent Discovery and Development of Inhibitors that Target CDK9 and Their Therapeutic Indications” (J Med Chem, 2024)
